# In article PMC7018972, “Novel and selective inactivators of Triosephosphate isomerase with anti-trematode activity” (Scientific Reports, 2020):
# Target: Fasciola hepatica TIM (FhTIM) (Fasciola hepatica, UniProt S4UI50)
# Assay: Inhibition of recombinant FhTIM, coupled enzyme assay
# Assay type: biochemical
# Conditions: Figure 1, ranges of inhibitory activity; read-out: IC50 range
# Procedure: Expression and purification of proteins: FhTIM, RabbitTIM and HsTIM were expressed in Escherichia coli and purified as described in the literature[31],[37]. […] Before use, extensive dialysis against 100 mM triethanolamine/10 mM EDTA (pH 7.4) was performed. […] Enzymatic activity was determined following the conversion of glyceraldehydes-3-phosphate into dihydroxyacetone phosphate in a coupled enzyme assay. The decrease in absorbance at 340 nm was followed in a multiplate reader VarioskanTM Flash Multimode Reader (Thermo ScientificTM, Waltham, MA, USA) at 38 °C. The reaction mixture (1 mL, pH 7.4) contained 100 mM triethanolamine, 10 mM EDTA, 0.2 mM NADH, 1 mM glyceraldehydes-3-phosphate and 0.9 units of α-glycerol phosphate dehydrogenase. The reaction was initiated by the addition of 5 ng/mL of the TIM of interest. For the inhibition studies, TIM was incubated at a concentration of 5 mg/mL in a buffer containing 100 mM triethanolamine, 10 mM EDTA, pH 7.4 and 10% of DMSO at 37 °C for 1 h. The mixture also contained the compounds, dissolved in DMSO, at the indicated concentrations. After 1 h, 10 µL were withdrawn and added to a final volume of 100 µL of the reaction mixture for the activity assay. The inhibition assay was performed in a 96-well microplate. […] The experiments were performed in triplicate in two independent experiments.
# Fasciola hepatica TIM (FhTIM), sequence (S4UI50 entry or part of it): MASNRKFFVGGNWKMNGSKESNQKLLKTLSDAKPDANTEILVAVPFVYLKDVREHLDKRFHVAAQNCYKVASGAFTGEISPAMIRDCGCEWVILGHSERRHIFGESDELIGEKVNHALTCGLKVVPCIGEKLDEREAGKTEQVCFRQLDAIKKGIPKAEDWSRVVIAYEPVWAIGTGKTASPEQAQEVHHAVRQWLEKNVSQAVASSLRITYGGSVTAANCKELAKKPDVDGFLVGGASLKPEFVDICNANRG
row,IC50 [µM],SMILES
1,< 50,O=C1C(=Cc2ccc([N+](=O)[O-])cc2)C(=O)N(Cc2ccccc2)S(=O)(=O)N1Cc1ccccc1 [Compound 111]

# Same assay, conditions: Table 1S, screening of 340 compounds in FhTIM; table head prints no unit, µM per b8/b9; read-out: IC50
row,SMILES,IC50 [µM]
1,CCCCNCCCCCn1nc(OC)c2cc([N+](=O)[O-])ccc21 [Compound 643],> 100
2,CC(=O)N(C1=NN(C(C)=O)C(c2ccc([N+](=O)[O-])s2)S1)c1ccccc1 (centres unmarked) [Compound 130],> 100
3,O=S(=O)(NC1CCCCC1)NC1CCCCC1 [Compound 118],> 100
4,O=C(NN=Cc1ccccc1O)c1ccc(Cl)cc1 [Compound 1249],> 100
5,C=CCn1c(-c2csc(=NN=Cc3ccccc3)n2-c2ccccc2)csc1=NN=CC=Cc1ccco1 [Compound 782],> 100
6,Cc1c(C=Cc2ccc(N(C)C)cc2)[n+]([O-])cn[n+]1[O-] [Compound 219],> 100
7,C=CCn1c(-c2csc(=NN=Cc3cccs3)n2CC=C)csc1=NN=Cc1cccs1 [Compound 288],> 100
8,O=C1CSC(=NN=Cc2ccc([N+](=O)[O-])s2)N1c1ccccc1 [Compound 262],> 100
9,C=CCn1c(C)csc1=NN=Cc1ccc(S(=O)(=O)O)o1 [Compound 1130],> 100
10,N#CSCC(=O)c1ccccc1 [Compound 811],> 100
11,Clc1ccc(-c2csc(NN=CC=Cc3ccco3)n2)cc1 [Compound 901],> 100
12,C(=NN=c1scc(-c2ccccc2)n1-c1ccccc1)c1ccccc1 [Compound 270],> 100
13,CSc1ccc(C=CC(=O)c2ccc([N+](=O)[O-])cc2)cc1 [Compound 1155],> 100
14,CN(CC=Cc1ccccc1)Cc1ccc2c(c1)=[N+]([O-])C(C)(C)[N+]=2[O-] [Compound 499],> 100
15,C=CCN(C(C)=O)C1=NNC(c2ccc([N+](=O)[O-])s2)S1 (centres unmarked) [Compound 287],> 100
16,O=C1C(=Cc2cccs2)CCC1=Cc1cccs1 [Compound 1248],> 100
17,Cc1ccc2c(c1)nc(-c1ccc(N(C)C)cc1)n2CCc1ccccc1 [Compound 696],> 100
18,CC12CCC(O)CC1=CCC1C2CCC2(C)C(C(=O)C=CC=Cc3ccccc3)CCC12 (centres unmarked) [Compound 1279],> 100
19,C=CCn1c(C(=O)CNN2CCN(C/C=C/c3ccccc3)CC2)csc1=NN=C/C=C/c1ccco1 [Compound 1115],> 100
20,O=[N+]([O-])c1ccc2c(c1)c(O)nn2CCCCCN1CCCCC1 [Compound 481],50 to 100
21,NC1=NS(=O)(=O)N(CCC2CCCCC2)c2nc(-c3ccc(F)cc3)[nH]c21 [Compound 706],> 100
22,COc1ccc(NC(=O)CCl)cc1 [Compound 379],> 100
23,CN(C)CCCCCn1nc(O)c2cc([N+](=O)[O-])ccc21 [Compound 477],> 100
24,O=C1C(=C2Nc3ccccc3C2=O)Nc2ccccc21 [Compound 879],> 100
25,O=C1/C(=C/C=C/c2ccco2)CCC/C1=C\C=C\c1ccco1 [Compound 1019],50 to 100
26,Clc1ccc(-c2csc(N=CC=Cc3ccco3)n2)cc1 [Compound 910],> 100
27,C=CCn1c(C)csc1=NN=CC=Cc1ccccc1 [Compound 1135],> 100

row,SMILES,IC50 [µM]
1,C=CCNC(=S)NN=CC=Cc1ccc(C)o1 [Compound 263],> 100
2,[O-][n+]1onc2ccc(C=Cc3ccc4nonc4c3)cc21 [Compound 12],> 100
3,NNC(=O)c1ccc2c(c1)OCO2 [Compound 711],> 100
4,O=C(/C=C/c1ccco1)N1CCN(C/C=C/c2ccccc2)CC1 [Compound 50],> 100
5,O=[N+]([O-])c1ccc2c(c1)c(OCc1ccccc1)nn2CCCCCN1CCN(CC=Cc2ccccc2)CC1 [Compound 505],> 100
6,NC1=NC(=O)N=C(N)C1=Cc1ccco1 [Compound 575],50 to 100
7,O=C1CSC(=NN=CC=Cc2ccco2)N1c1ccccc1 [Compound 282],> 100
8,O=[N+]([O-])c1ccc(C=CC=NNC(=S)Nc2ccccc2)o1 [Compound 54],> 100
9,Cc1c(C(=O)NN=Cc2ccccc2)no[n+]1[O-] [Compound 824],> 100
10,CC(=NNC(N)=O)c1cccc(C(C)=NNC(N)=O)n1 [Compound 701],> 100
11,C=CCn1c(C(=O)N2CCN(Cc3ccccc3)CC2)csc1=NN=CC=Cc1ccco1 [Compound 1117],> 100
12,NN1CCSCC1 [Compound 616],> 100
13,C=CCN1C(=O)CSC1=NN=Cc1cccs1 [Compound 273],> 100
14,COc1nn(CCOCCN2CCN(CC=Cc3ccccc3)CC2)c2ccc([N+](=O)[O-])cc12 [Compound 198],> 100
15,Cc1nnc[n+]([O-])c1C=Cc1ccc(N(C)C)cc1 [Compound 641],> 100
16,C=CCn1c(-c2csc(=NN=CC=Cc3cccs3)n2CC=C)csc1=NN=CC=Cc1cccs1 [Compound 1118],> 100
17,C=CCn1c(-c2ccc(OC)cc2)csc1=NN=CC=Cc1ccco1 [Compound 871],> 100
18,O=C1CSC(=NN=Cc2cccs2)N1c1ccccc1 [Compound 293],> 100
19,C=CCn1c(C(=O)CN2CCSCC2)csc1=NN=CC=Cc1ccco1 [Compound 1116],> 100
20,C=CCNC(=S)NN=Cc1ccsc1 [Compound 911],> 100
21,O=C1C(=Cc2ccc([N+](=O)[O-])cc2)C(=O)N(Cc2ccccc2)S(=O)(=O)N1Cc1ccccc1 [Compound 111],< 25
22,O=C1C(=Cc2ccccc2)CCC1=Cc1ccccc1 [Compound 1247],50 to 100
23,N#Cc1c2ccccc2[n+]([O-])n1CCC=Cc1ccc(Cl)cc1 [Compound 501],> 100
24,O=[N+]([O-])c1ccc(C=Cc2ccc3nonc3c2)cc1 [Compound 584],> 100
25,O=[N+]([O-])c1c(Cl)cc2c(no[n+]2[O-])c1N1CCN(c2c([N+](=O)[O-])c(Cl)cc3c2no[n+]3[O-])CC1 [Compound 704],> 100
26,C=CCn1c(-c2ccc(Br)cc2)csc1=NN=CC=Cc1ccco1 [Compound 306],50 to 100
27,[O-][n+]1onc2ccc(CN3CCN(CC=Cc4ccccc4)CC3)cc21 [Compound 609],> 100

# More lines, now with the values ahead:
row,IC50 [µM],SMILES
1,> 100,[O-][n+]1onc2ccc(C=NNC(=S)Nc3ccccc3)cc21 [Compound 41]
2,> 100,ON=Cc1ccc(O)cc1 [Compound 1113]
3,> 100,O=c1cc(O)n(Cc2ccccc2)c(=S)n1Cc1ccccc1 [Compound 1088]
4,> 100,COC(=O)NN=Cc1no[n+]([O-])c1C [Compound 174]
5,> 100,CCOC(=O)c1cc2c(n1CC)C(=O)C(Oc1ccc(Cl)cc1)=CC2=O [Compound 1129]
6,> 100,COc1ccc(C=Cc2cnnc[n+]2[O-])cc1 [Compound 365]
7,> 100,CN(C)c1ccncc1 [Compound 1101]
8,> 100,C=CCNC(=S)NN=Cc1ccc(SC)cc1 [Compound 281]
9,> 100,C=CCn1c(C(=O)O)csc1=NN=CC=Cc1cccs1 [Compound 1126]
10,> 100,C=CCn1c(C)csc1=NN=CC=Cc1ccc([N+](=O)[O-])s1 [Compound 259]
11,> 100,CC(=NN=c1[nH]c(C(=O)O)cs1)C1CCC2C3CC=C4CC(O)CCC4(C)C3CCC12C (centres unmarked) [Compound 1258]
12,> 100,N#Cc1c2ccccc2[n+]([O-])n1-c1ccc(Cl)cc1 [Compound 480]
13,> 100,C=CCn1c(C(=O)N2CCN(CC=Cc3ccccc3)CC2)csc1=NN=CC=Cc1ccco1 [Compound 314]
14,> 100,C=CCN1C(=O)CSC1=NN=Cc1ccc(Cl)cc1 [Compound 260]
15,> 100,Cc1ccc(/C=C/C=C/C(=O)/C=C/C=C/c2ccc(C)o2)o1 [Compound 1108]
16,50 to 100,C=CCNC(=S)NN=Cc1ccnc2ccccc12 [Compound 308]
17,> 100,C=CCn1c(-c2ccccc2)csc1=NN=Cc1ccc(S(=O)(=O)O)o1 [Compound 876]
18,> 100,CC(C=CC(=O)C=CC(C)=Cc1ccco1)=Cc1ccco1 [Compound 809]
19,> 100,Cc1nnc[n+]([O-])c1C=Cc1ccc([N+](=O)[O-])o1 [Compound 359]
20,> 100,C=CCn1c(-c2ccccc2)csc1=NN=Cc1cccs1 [Compound 272]
21,> 100,COc1ccc(C=Cc2c(C)[n+]([O-])nc[n+]2[O-])cc1 [Compound 218]
22,> 100,CCCN(CCCCCn1nc(OCc2ccccc2)c2cc([N+](=O)[O-])ccc21)CCC(C)C1CC=C(C)CC1 (centres unmarked) [Compound 199]
23,> 100,C=CCn1c(-c2ccc(OC)cc2)csc1=NN=CC=Cc1cccs1 [Compound 1133]
24,> 100,Cc1ccc(-n2c(C#N)c3ccccc3[n+]2[O-])cc1 [Compound 476]
25,> 100,COc1nn(CCCCCN(C)C)c2ccc([N+](=O)[O-])cc12 [Compound 469]
26,> 100,CCCCN1C(=O)C(=Cc2ccc([N+](=O)[O-])cc2)C(=O)N(CCCC)S1(=O)=O [Compound 1165]
27,> 100,Cc1ccc2c(c1)=[N+]([O-])C(C)(C)[N+]=2[O-] [Compound 109]
28,> 100,O=C(C=Cc1cccs1)C=Cc1cccs1 [Compound 796]
29,100,O=[N+]([O-])c1cc(CI)ccc1F [Compound 769]
30,> 100,C=CCN1C(=O)CSC1=NN=CC=Cc1ccco1 [Compound 264]

# Same assay, conditions: recombinant FhTIM, 1 h incubation with compound at 37 °C; read-out: IC50
row,IC50 [µM],SMILES
1,50 ± 6,Nc1ccc2nc3ccc(F)cc3nc2c1 [Compound 1149]
